Legend:
KM 12 = assay: NCI-60 anticancer screening (SRB); assay type: cell-based; conditions: Homo sapiens, KM12; KM 12, colon cancer; one dose 10 μM; read-out: Growth Inhibition Percentage (GI %)
NCI 60 cancer cell lines = assay: NCI-60 anticancer screening (SRB), whole panel; assay type: cell-based, human; conditions: mean across the NCI-60 panel; one dose 10 μM
A549/ATCC = assay: NCI-60 anticancer screening (SRB); assay type: cell-based; conditions: Homo sapiens; A549/ATCC, NSC lung cancer; one dose 10 μM; read-out: Growth Inhibition Percentage (GI %)
SK-MEL-5 = assay: NCI-60 anticancer screening (SRB); assay type: cell-based; conditions: Homo sapiens; SK-MEL-5, melanoma; one dose 10 μM; read-out: Growth Inhibition Percentage (GI %)
HCC-2998 = assay: NCI-60 anticancer screening (SRB); assay type: cell-based; conditions: Homo sapiens; HCC-2998, colon cancer; one dose 10 μM; read-out: Growth Inhibition Percentage (GI %)
SNB-19 = assay: NCI-60 anticancer screening (SRB); assay type: cell-based; conditions: Homo sapiens; SNB-19, CNS cancer; one dose 10 μM; read-out: Growth Inhibition Percentage (GI %)
SR = assay: NCI-60 anticancer screening (SRB); assay type: cell-based; conditions: Homo sapiens, leukemia, one dose 10 μM, read-out: Growth Inhibition Percentage (GI %)
K-562 = assay: NCI-60 anticancer screening (SRB); assay type: cell-based; conditions: Homo sapiens, K562; K-562, leukemia; one dose 10 μM; read-out: Growth Inhibition Percentage (GI %)
T-47D = assay: NCI-60 anticancer screening (SRB); assay type: cell-based; conditions: Homo sapiens, T47D, breast cancer, one dose 10 μM, read-out: Growth Inhibition Percentage (GI %)
SK-MEL-2 = assay: NCI-60 anticancer screening (SRB); assay type: cell-based; conditions: Homo sapiens; SK-MEL-2, melanoma; one dose 10 μM; read-out: Growth Inhibition Percentage (GI %)
HCT-15 = assay: NCI-60 anticancer screening (SRB); assay type: cell-based; conditions: Homo sapiens; HCT-15, colon cancer; one dose 10 μM; read-out: Growth Inhibition Percentage (GI %)
OVCAR-8 = assay: NCI-60 anticancer screening (SRB); assay type: cell-based; conditions: Homo sapiens; OVCAR-8, ovarian cancer; one dose 10 μM; read-out: Growth Inhibition Percentage (GI %)
SW-620 = assay: NCI-60 anticancer screening (SRB); assay type: cell-based; conditions: Homo sapiens; SW-620, colon cancer; one dose 10 μM; read-out: Growth Inhibition Percentage (GI %)
LOX IMVI = assay: NCI-60 anticancer screening (SRB); assay type: cell-based; conditions: Homo sapiens, melanoma, one dose 10 μM, read-out: Growth Inhibition Percentage (GI %)
UACC-257 = assay: NCI-60 anticancer screening (SRB); assay type: cell-based; conditions: Homo sapiens; UACC-257, melanoma; one dose 10 μM; read-out: Growth Inhibition Percentage (GI %)
MDA-MB-468 = assay: NCI-60 anticancer screening (SRB); assay type: cell-based; conditions: Homo sapiens; MDA-MB-468, breast cancer; one dose 10 μM; read-out: Growth Inhibition Percentage (GI %)
RXF 393 = assay: NCI-60 anticancer screening (SRB); assay type: cell-based; conditions: Homo sapiens; RXF 393, renal cancer; one dose 10 μM; read-out: Growth Inhibition Percentage (GI %)
RPMI-8226 = assay: NCI-60 anticancer screening (SRB); assay type: cell-based; conditions: Homo sapiens; RPMI-8226, leukemia; one dose 10 μM; read-out: Growth Inhibition Percentage (GI %)
ACHN = assay: NCI-60 anticancer screening (SRB); assay type: cell-based; conditions: Homo sapiens, renal cancer, one dose 10 μM, read-out: Growth Inhibition Percentage (GI %)
SNB-75 = assay: NCI-60 anticancer screening (SRB); assay type: cell-based; conditions: Homo sapiens; SNB-75, CNS cancer; one dose 10 μM; read-out: Growth Inhibition Percentage (GI %)
OVCAR-3 = assay: NCI-60 anticancer screening (SRB); assay type: cell-based; conditions: Homo sapiens; OVCAR-3, ovarian cancer; one dose 10 μM; read-out: Growth Inhibition Percentage (GI %)
MOLT-4 = assay: NCI-60 anticancer screening (SRB); assay type: cell-based; conditions: Homo sapiens; MOLT-4, leukemia; one dose 10 μM; read-out: Growth Inhibition Percentage (GI %)
NCI-H322M = assay: NCI-60 anticancer screening (SRB); assay type: cell-based; conditions: Homo sapiens, NSC lung cancer, one dose 10 μM, read-out: Growth Inhibition Percentage (GI %)
OVCAR-5 = assay: NCI-60 anticancer screening (SRB); assay type: cell-based; conditions: Homo sapiens; OVCAR-5, ovarian cancer; one dose 10 μM; read-out: Growth Inhibition Percentage (GI %)
SK-OV-3 = assay: NCI-60 anticancer screening (SRB); assay type: cell-based; conditions: Homo sapiens; SK-OV-3, ovarian cancer; one dose 10 μM; read-out: Growth Inhibition Percentage (GI %)
OVCAR-4 = assay: NCI-60 anticancer screening (SRB); assay type: cell-based; conditions: Homo sapiens; OVCAR-4, ovarian cancer; one dose 10 μM; read-out: Growth Inhibition Percentage (GI %)
HL-60(TB) = assay: NCI-60 anticancer screening (SRB); assay type: cell-based; conditions: Homo sapiens, leukemia, one dose 10 μM, read-out: Growth Inhibition Percentage (GI %)
MDA-MB-435 = assay: NCI-60 anticancer screening (SRB); assay type: cell-based; conditions: Homo sapiens; MDA-MB-435, melanoma; one dose 10 μM; read-out: Growth Inhibition Percentage (GI %)
NCI-H522 = assay: NCI-60 anticancer screening (SRB); assay type: cell-based; conditions: Homo sapiens; NCI-H522, NSC lung cancer; one dose 10 μM; read-out: Growth Inhibition Percentage (GI %)
SF-268 = assay: NCI-60 anticancer screening (SRB); assay type: cell-based; conditions: Homo sapiens; SF-268, CNS cancer; one dose 10 μM; read-out: Growth Inhibition Percentage (GI %)
NCI-H226 = assay: NCI-60 anticancer screening (SRB); assay type: cell-based; conditions: Homo sapiens; NCI-H226, NSC lung cancer; one dose 10 μM; read-out: Growth Inhibition Percentage (GI %)
HOP-62 = assay: NCI-60 anticancer screening (SRB); assay type: cell-based; conditions: Homo sapiens; HOP-62, NSC lung cancer; one dose 10 μM; read-out: Growth Inhibition Percentage (GI %)

| Structure (SMILES) | inhibition at 10 µM (KM 12) | GI % mean (NCI 60 cancer cell lines) | inhibition at 10 µM (A549/ATCC) | inhibition at 10 µM (SK-MEL-5) | inhibition at 10 µM (HCC-2998) | inhibition at 10 µM (SNB-19) | inhibition at 10 µM (SR) | inhibition at 10 µM (K-562) | inhibition at 10 µM (T-47D) | inhibition at 10 µM (SK-MEL-2) | inhibition at 10 µM (HCT-15) | inhibition at 10 µM (OVCAR-8) | inhibition at 10 µM (SW-620) | inhibition at 10 µM (LOX IMVI) | inhibition at 10 µM (UACC-257) | inhibition at 10 µM (MDA-MB-468) | inhibition at 10 µM (RXF 393) | inhibition at 10 µM (RPMI-8226) | inhibition at 10 µM (ACHN) | inhibition at 10 µM (SNB-75) | also measured |
| --- | --- | --- | --- | --- | --- | --- | --- | --- | --- | --- | --- | --- | --- | --- | --- | --- | --- | --- | --- | --- | --- |
| CCOC(=O)C1=C(N)N(c2ccccc2)C2=C(C(=O)CC(C)(C)C2)C1c1ccccn1 (racemic) [12a, (±)-Ethyl 2-amino-7,7-dimethyl-5-oxo-1-phenyl-4-(pyridin-2-yl)-1,4,5,6,7,8-hexahydroquinoline-3-carboxylate] | < 10% | - ((-) = GI % mean less than 10) | < 10% | < 10% | < 10% | < 10% | 16% | < 10% | < 10% | < 10% | < 10% | < 10% | < 10% | < 10% | < 10% | < 10% | < 10% | < 10% | < 10% | 19% | inhibition at 10 µM (OVCAR-3): < 10%; inhibition at 10 µM (MOLT-4): < 10%; inhibition at 10 µM (NCI-H322M): < 10%; inhibition at 10 µM (OVCAR-5): < 10%; inhibition at 10 µM (SK-OV-3): < 10%; inhibition at 10 µM (OVCAR-4): < 10%; inhibition at 10 µM (HL-60(TB)): < 10%; inhibition at 10 µM (MDA-MB-435): < 10%; inhibition at 10 µM (NCI-H522): 11%; inhibition at 10 µM (SF-268): < 10%; inhibition at 10 µM (NCI-H226): < 10%; melting point: 158 to 160 °C; inhibition at 10 µM (HOP-62): < 10% |
| CCOC(=O)C1=C(N)N(c2ccc(Cl)cc2)C2=C(C(=O)CC(C)(C)C2)C1c1ccc(Cl)cc1 (racemic) [8e, (±)-Ethyl 2-amino-1,4-bis (4-chlorophenyl)-7,7-dimethyl-5-oxo-1,4,5,6,7,8-hexahydroquinoline-3-carboxylate] | 38% | 32% | 62% | 46% | 11% | 31% | 52% | 63% | 42% | < 10% | 58% | 30% | 33% | 11% | 56% | 33% | 35% | 90% | 32% | 27% | inhibition at 10 µM (OVCAR-3): 16%; inhibition at 10 µM (MOLT-4): 89%; inhibition at 10 µM (NCI-H322M): < 10%; inhibition at 10 µM (OVCAR-5): < 10%; inhibition at 10 µM (SK-OV-3): < 10%; inhibition at 10 µM (OVCAR-4): 54%; inhibition at 10 µM (HL-60(TB)): 62%; inhibition at 10 µM (MDA-MB-435): 54%; inhibition at 10 µM (NCI-H522): 19%; inhibition at 10 µM (SF-268): 22%; inhibition at 10 µM (NCI-H226): < 10%; melting point: 220 to 222 °C; inhibition at 10 µM (HOP-62): < 10% |
| CCOC(=O)C1=C(N)N(c2ccc(Cl)cc2)C2=C(C(=O)CC(C)(C)C2)C1c1cccc(Cl)c1Cl (racemic) [10b, (±)-Ethyl 2-amino-1–(4-chorophenyl)-4–(2,3-dichlorophenyl)-7,7-dimethyl-5-oxo-1-phenyl-1,4,5,6,7,8-hexahydroquinoline-3-carboxylate] | 49% | 36% | 34% | 40% | 18% | 22% | 66% | 71% | 41% | 20% | 62% | 25% | < 10% | < 10% | 44% | 68% | 27% | 73% | 54% | 22% | inhibition at 10 µM (OVCAR-3): 44%; inhibition at 10 µM (MOLT-4): 70%; inhibition at 10 µM (NCI-H322M): < 10%; inhibition at 10 µM (OVCAR-5): < 10%; inhibition at 10 µM (SK-OV-3): 13%; inhibition at 10 µM (OVCAR-4): 28%; inhibition at 10 µM (HL-60(TB)): 77%; inhibition at 10 µM (MDA-MB-435): 25%; inhibition at 10 µM (NCI-H522): 30%; inhibition at 10 µM (SF-268): 22%; inhibition at 10 µM (NCI-H226): 42%; melting point: 250 to 252 °C; inhibition at 10 µM (HOP-62): 16% |
